Experimental data as given in US4725683A, “Fluorophenoxyphenoxypropionates and derivatives thereof” (The Dow Chemical Company, priority 1985, dated 1988).

Columns and labels:
Format in all cases: in vivo
[1] = tested on: Crabgrass; experiment: Postemergent activity
Method: (§1) Representative compositions of the present invention were evaluated for the postemergence control of species of plants listed in Table A. In these evaluations, pots of the plant species listed in Table A, grown to a height of about 10 cms, were used. Aqueous spray compositions, containing various amounts of 2-[4-(2-fluoro-4-trifluoromethylphenoxy)-phenoxy]propionic acid methy ester, i.e., 125 ppm, 62.5 ppm, 31.25 ppm, 15.6 ppm, 7.8 ppm and 3.9 ppm, respectively, were applied to separate pots. The spray compositions were made by mixing the active ingredient in acetone to 1/2 the final volume, i.e., twice the final concentration. An equal amount of water was added to the active ingredient/acetone mixture wherein the water contained 0.1 percent by weight of TWEEN® 200 surfactant. The application to the plants was made to the point of run-off and was carried out with conventional spraying equipment. Other pots were sprayed with similar compositions containing no toxicant to serve as controls. Thereafter, the pots were maintained under conditions conducive for plant growth. Two weeks after treatment, the pots were examined for plant growth and evaluated on a scale of 0 to 100 where 0 represents no effect and 100 represents complete kill. The results of the examination of the treated pots are set forth below in Table A.
(§2) Substantially the same procedures as those described in Example A were repeated except that the active ingredients were 2-[4-(4-chloro-2-fluorophenoxy)phenoxy]propionic acid; methyl ester and its R-enantiomer and 2-(4-(4-bromo-2-fluorophenoxy)phenoxy propionic acid; methyl ester and its R enantiomer. The results are listed below in Table B.
(§3) In further operations employing the above general procedures and the indicated test compounds the following results were obtained: […]

[2] = tested on: Wild Oats; experiment: Postemergent activity; details: Avena fatua, post-emergence, 336 h, read-out: % Control
Method: as §1, §2, §3

[3] = tested on: Barnyard Grass; experiment: Postemergent activity
Method: as §1, §2, §3

[4] = tested on: Wheat; experiment: Postemergent activity; details: Triticum aestivum, post-emergence, 336 h, read-out: % Control
Method: as §1, §2, §3

[5] = tested on: Johnson Grass; experiment: Postemergent activity
Method: as §1

[6] = tested on: Yellow Foxtail; experiment: Preemergent activity; details: Setaria, pre-emergence, read-out: Preemergence Control
Method: (§4) In a representative operation, 2-[4-(2-fluoro-4-trifluoromethylphenoxy)phenoxy]propionic acid methyl ester, to be utilized in a series of tests, is dissolved in acetone to one half of the final volume (twice the final concentration) to be used and the acetone solution in each case is admixed with an equal volume of water containing 0.1 percent by weight of Tween-20 surface active material (Tween-20 is a trademark of Atlas Chemical Company). The composition, generally in the nature of an emulsion, was employed to treat separate respective seed beds of sandy loam soil of good nutrient content wherein each seed bed contained separate groups of good viable seeds, each group being of one of a known plant species. The various beds were positioned side by side and exposed to substantially identical conditions of temperature and light. Each bed was maintained so as to prevent any interaction with the test compound in different seed beds. Each seed bed was treated with the composition as a spray employing conventional spraying equipment to deposit a predetermined amount of the compound uniformly throughout the surface of the bed. Another seed bed was treated only with the acetone-Tween-20 water mixture with no chemical added to serve as a control.

[7] = tested on: Johnson Grass; experiment: Preemergent activity; details: Sorghum halepense, pre-emergence, read-out: Preemergence Control
Method: as §4

[8] = tested on: Wild Oats; experiment: Preemergent activity; details: Avena fatua, pre-emergence, read-out: Preemergence Control
Method: as §4

[9] = tested on: Barnyard Grass; experiment: Preemergent activity; details: Echinochloa crus-galli, pre-emergence, read-out: Preemergence Control
Method: as §4

[10] = tested on: Wheat; experiment: Preemergent activity; details: Triticum aestivum, pre-emergence, read-out: Preemergence Control
Method: as §4

[11] = tested on: Yellow Foxtail; experiment: Postemergent activity
Method: Representative compositions of the present invention were evaluated for the postemergence control of species of plants listed in Table A. In these evaluations, pots of the plant species listed in Table A, grown to a height of about 10 cms, were used. […] The spray compositions were made by mixing the active ingredient in acetone to 1/2 the final volume, i.e., twice the final concentration. An equal amount of water was added to the active ingredient/acetone mixture wherein the water contained 0.1 percent by weight of TWEEN® 200 surfactant. The application to the plants was made to the point of run-off and was carried out with conventional spraying equipment. […] Thereafter, the pots were maintained under conditions conducive for plant growth.

For `COC(=O)C(C)Oc1ccc(Oc2ccc(I)cc2F)cc1` (stereo not drawn) [2-(4-(2-fluoro-4-iodophenoxy)phenoxy)propionic acid methyl ester], the “% Control” value ([1]; 15.6 ppm) was 100%, the “% Control” value ([1]; 31.25 ppm) was 100% and the “% Control” value ([1]; 62.5 ppm) was 100%. For the same molecule, the “% Control” value ([1]; 125 ppm) was 100%, the pest or weed control at 15.6 ppm ([2]; 15.6 ppm) was 0% and the pest or weed control at 31.25 ppm ([2]; 31.25 ppm) was 0%. The pest or weed control at 62.5 ppm ([2]; 62.5 ppm) was 0%, the pest or weed control at 125 ppm ([2]; 125 ppm) was 0% and the “% Control” value ([3]; 15.6 ppm) was 10%. For the same molecule, the “% Control” value ([3]; 31.25 ppm) was 85%, the “% Control” value ([3]; 62.5 ppm) was 100% and the “% Control” value ([3]; 125 ppm) was 100%. For the same molecule, the plant injury at 15.6 ppm ([4]; 15.6 ppm) was 0%, the plant injury at 31.25 ppm ([4]; 31.25 ppm) was 0% and the plant injury at 62.5 ppm ([4]; 62.5 ppm) was 0%. The plant injury at 125 ppm ([4]; 125 ppm) was 0%, the “% Control” value ([5]; 15.6 ppm) was 90% and the “% Control” value ([5]; 31.25 ppm) was 100%. The “% Control” value ([5]; 62.5 ppm) was 100%, the “% Control” value ([5]; 125 ppm) was 100% and the pest or weed control at 70 g/ha ([6]; 0.07 kgs/hectare) was 0%. The pest or weed control at 140 g/ha ([6]; 0.14 kgs/hectare) was 0%, the pest or weed control at 280 g/ha ([6]; 0.28 kgs/hectare) was 20% and the pest or weed control at 560 g/ha ([6]; 0.56 kgs/hectare) was 100%. The pest or weed control at 1120 g/ha ([6]; 1.12 kgs/hectare) was 100%, the pest or weed control at 70 g/ha ([7]; 0.07 kgs/hectare) was 0% and the pest or weed control at 140 g/ha ([7]; 0.14 kgs/hectare) was 0%. It also gave a pest or weed control at 280 g/ha ([7]; 0.28 kgs/hectare) of 60%, a pest or weed control at 560 g/ha ([7]; 0.56 kgs/hectare) of 99% and a pest or weed control at 1120 g/ha ([7]; 1.12 kgs/hectare) of 100%. The pest or weed control at 70 g/ha ([8]; 0.07 kgs/hectare) was 0%, the pest or weed control at 140 g/ha ([8]; 0.14 kgs/hectare) was 0% and the pest or weed control at 280 g/ha ([8]; 0.28 kgs/hectare) was 0%. For the same molecule, the pest or weed control at 560 g/ha ([8]; 0.56 kgs/hectare) was 95%, the pest or weed control at 1120 g/ha ([8]; 1.12 kgs/hectare) was 99% and the pest or weed control at 140 g/ha ([9]; 0.14 kgs/hectare) was 50%. The pest or weed control at 280 g/ha ([9]; 0.28 kgs/hectare) was 100%, the pest or weed control at 560 g/ha ([9]; 0.56 kgs/hectare) was 97% and the pest or weed control at 1120 g/ha ([9]; 1.12 kgs/hectare) was 100%. For the same molecule, the plant injury at 70 g/ha ([10]; 0.07 kgs/hectare) was 0%, the plant injury at 140 g/ha ([10]; 0.14 kgs/hectare) was 0% and the plant injury at 280 g/ha ([10]; 0.28 kgs/hectare) was 0%. The plant injury at 560 g/ha ([10]; 0.56 kgs/hectare) was 20%, the plant injury at 1120 g/ha ([10]; 1.12 kgs/hectare) was 20% and the “% Control” value ([11]; 15.6 ppm) was 90%. The “% Control” value ([11]; 31.25 ppm) was 100%, the “% Control” value ([11]; 62.5 ppm) was 100% and the “% Control” value ([11]; 125 ppm) was 100%.
